# Activity calls are given as the source filed them.
# Experiments:
# [1] = target: T1, Neuropeptide Y receptor type 2 (Homo sapiens, UniProt P49146); format: functional, cell-based;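 note: HEK293 cells expressing the receptor and a CNG channel; stimulus was NPY near EC95 followed by isoproterenol to raise cAMP; antagonist potency measured as restoring cAMP signal that NPY suppresses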
# T1 sequence (P49146 whole entry): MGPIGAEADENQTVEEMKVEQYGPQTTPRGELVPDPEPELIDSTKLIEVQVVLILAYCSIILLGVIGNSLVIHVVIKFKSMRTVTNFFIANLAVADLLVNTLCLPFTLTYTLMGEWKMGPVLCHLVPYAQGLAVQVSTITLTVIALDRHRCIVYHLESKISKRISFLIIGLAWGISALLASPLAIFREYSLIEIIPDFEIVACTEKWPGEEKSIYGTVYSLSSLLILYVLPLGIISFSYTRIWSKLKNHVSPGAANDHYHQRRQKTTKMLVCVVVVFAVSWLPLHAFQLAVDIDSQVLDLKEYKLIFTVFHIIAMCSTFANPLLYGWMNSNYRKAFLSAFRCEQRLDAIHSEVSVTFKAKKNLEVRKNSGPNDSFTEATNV
# [2] = target: T2, Neuropeptide Y receptor type 1 (Homo sapiens, UniProt P25929); format: functional;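 note: HEK293 cells with a CNG channel challenged with NPY then isoproterenol; potency as antagonist that reverses NPY suppression of cAMP signal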
# T2 sequence (P25929 whole entry): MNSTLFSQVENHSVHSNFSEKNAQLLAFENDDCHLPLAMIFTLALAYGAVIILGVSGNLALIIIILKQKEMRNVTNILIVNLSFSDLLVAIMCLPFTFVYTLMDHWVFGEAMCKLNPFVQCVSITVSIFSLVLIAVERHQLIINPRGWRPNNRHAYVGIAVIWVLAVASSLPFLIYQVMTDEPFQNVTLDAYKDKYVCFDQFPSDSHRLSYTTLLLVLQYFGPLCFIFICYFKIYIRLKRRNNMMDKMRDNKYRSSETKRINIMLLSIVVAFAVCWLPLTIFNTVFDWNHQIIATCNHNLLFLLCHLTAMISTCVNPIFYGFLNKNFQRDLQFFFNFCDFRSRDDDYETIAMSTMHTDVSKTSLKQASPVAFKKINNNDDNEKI
# [3] = Luminescence Cell-Based Dose Response HTS to Identify Inhibitors of 5'UTR Stem-Loop Driven Prion Protein mRNA Translation in H4 Neuroglioblastoma Cells. [Related pubchem assays: 1827 (Project Summary), 1813 (Primary HTS)]; format: functional
# [4] = Luminescence Cell-Based Dose Confirmation HTS to Identify Inhibitors of Platelet Dense Granule Release. [Related pubchem assays: 1663 (Primary HTS), 1678 (Summary of Project)]; format: functional
# [5] = Luminescence-based counterscreen assay for KLF5 inhibitors: dose response cell-based high throughput screening assay to identify cytotoxic compounds using the IEC-6 intestinal epithelial cell line. [Related pubchem assays: 1700 (Primary screen.), 1834 (Confirmation screen.), 1858 (Summary AID.), 1905 (Counterscreen.)]; format: functional
# [6] = LGR2 antagonists, dose response, cell-based, HEK293, CRE-luciferase reporter, cherry pick, set 2 (AID 743343); format: functional;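 note: transfected cells were stimulated with diluted bursicon conditioned medium after compound addition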
# [7] = inhibitors of firefly luciferase expression or activity, dose response, H4 neuroglioma cells, luminescence (AID 1990); format: functional, cell-based
# [8] = target: Luciferin 4-monooxygenase (Photinus pyralis, UniProt P08659); experiment: firefly luciferase enzyme inhibitors, dose response, biochemical, luminescence (AID 1891)
# [9] = MC4R antagonists, dose response, counter-screen for LGR2 antagonist project, cell-based, plate reader, cherry pick (AID 743444); format: functional;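 note: transfected HEK 293 cells stimulated with alpha-MSH peptide; potency of inhibitors of the alpha-MSH evoked signal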
# [10] = HEK293 cell cytotoxicity, dose response, cytotoxicity control, plate reader, cherry-picked samples (AID 743446); format: functional, cell-based
# Cytochrome P450 2C19 = Cytochrome P450 2C19 (Homo sapiens, UniProt P33261); experiment: Cytochrome panel assay with activity outcomes. Panel member name: p450-cyp2c19 Compounds with AC50 equal or less than 10 uM are considered active; format: functional; details: read-out: AC50
# [11] = target: Peroxisome proliferator-activated receptor gamma/Nuclear receptor coactivator 2 (Homo sapiens, UniProt P37231); format: functional;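 note: agonist potency for raising coactivator recruitment to the receptor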
# Sequence of Peroxisome proliferator-activated receptor gamma/Nuclear receptor coactivator 2 (P37231 whole entry): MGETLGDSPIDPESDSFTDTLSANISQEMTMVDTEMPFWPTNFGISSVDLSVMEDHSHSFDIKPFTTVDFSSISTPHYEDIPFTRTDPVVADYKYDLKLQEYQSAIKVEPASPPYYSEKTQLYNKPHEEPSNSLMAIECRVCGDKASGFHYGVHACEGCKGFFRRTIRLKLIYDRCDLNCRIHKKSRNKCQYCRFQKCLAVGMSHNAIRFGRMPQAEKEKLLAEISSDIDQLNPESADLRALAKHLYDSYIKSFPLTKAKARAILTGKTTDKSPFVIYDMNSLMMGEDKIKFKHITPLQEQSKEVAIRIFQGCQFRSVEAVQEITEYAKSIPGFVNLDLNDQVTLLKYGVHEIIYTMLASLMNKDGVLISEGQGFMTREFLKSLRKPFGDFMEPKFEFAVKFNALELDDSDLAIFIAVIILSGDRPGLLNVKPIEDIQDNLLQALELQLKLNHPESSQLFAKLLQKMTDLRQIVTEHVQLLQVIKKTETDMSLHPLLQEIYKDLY
# Sequence of Peroxisome proliferator-activated receptor gamma/Nuclear receptor coactivator 2 (Q15596 whole entry, further chain): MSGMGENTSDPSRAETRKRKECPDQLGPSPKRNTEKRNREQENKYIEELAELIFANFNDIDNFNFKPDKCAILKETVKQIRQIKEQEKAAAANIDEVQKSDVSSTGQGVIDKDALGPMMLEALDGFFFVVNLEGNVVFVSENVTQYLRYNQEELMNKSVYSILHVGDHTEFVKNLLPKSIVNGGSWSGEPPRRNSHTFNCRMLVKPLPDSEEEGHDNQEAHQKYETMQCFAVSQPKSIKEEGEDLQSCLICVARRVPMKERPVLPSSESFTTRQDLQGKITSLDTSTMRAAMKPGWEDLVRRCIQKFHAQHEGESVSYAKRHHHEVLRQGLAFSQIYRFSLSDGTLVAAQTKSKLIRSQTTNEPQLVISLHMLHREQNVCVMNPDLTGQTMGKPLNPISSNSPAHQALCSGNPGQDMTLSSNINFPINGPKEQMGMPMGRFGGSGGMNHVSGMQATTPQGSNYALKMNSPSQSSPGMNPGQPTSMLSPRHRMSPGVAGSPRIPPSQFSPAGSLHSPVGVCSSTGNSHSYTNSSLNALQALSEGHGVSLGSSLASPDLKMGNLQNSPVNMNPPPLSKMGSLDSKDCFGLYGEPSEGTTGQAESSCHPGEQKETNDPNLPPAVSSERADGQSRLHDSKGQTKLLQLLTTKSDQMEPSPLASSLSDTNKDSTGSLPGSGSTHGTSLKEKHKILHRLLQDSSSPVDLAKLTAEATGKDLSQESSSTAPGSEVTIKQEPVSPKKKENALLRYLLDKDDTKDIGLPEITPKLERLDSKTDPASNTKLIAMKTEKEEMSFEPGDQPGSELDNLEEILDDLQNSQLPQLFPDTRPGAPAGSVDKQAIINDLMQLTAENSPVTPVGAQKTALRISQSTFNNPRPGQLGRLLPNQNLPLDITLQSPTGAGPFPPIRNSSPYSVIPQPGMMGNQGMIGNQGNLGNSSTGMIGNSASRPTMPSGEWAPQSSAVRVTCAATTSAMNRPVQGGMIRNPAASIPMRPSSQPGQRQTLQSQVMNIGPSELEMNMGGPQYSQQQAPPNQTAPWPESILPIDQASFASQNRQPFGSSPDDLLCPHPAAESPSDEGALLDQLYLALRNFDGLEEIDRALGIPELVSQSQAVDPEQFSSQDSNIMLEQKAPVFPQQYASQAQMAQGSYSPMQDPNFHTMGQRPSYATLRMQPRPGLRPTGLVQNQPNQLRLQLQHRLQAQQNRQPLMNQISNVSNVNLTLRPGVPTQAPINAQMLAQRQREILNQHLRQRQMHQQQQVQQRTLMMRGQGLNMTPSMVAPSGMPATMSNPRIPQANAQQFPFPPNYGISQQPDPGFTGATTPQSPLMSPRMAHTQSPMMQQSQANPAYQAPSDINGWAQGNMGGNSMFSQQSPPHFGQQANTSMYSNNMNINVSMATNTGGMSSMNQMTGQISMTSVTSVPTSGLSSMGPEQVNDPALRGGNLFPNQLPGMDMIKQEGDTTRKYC
# Cytochrome P450 2C9 = Cytochrome P450 2C9 (Homo sapiens, UniProt P11712)
# Sequence of Cytochrome P450 2C9 (P11712 whole entry): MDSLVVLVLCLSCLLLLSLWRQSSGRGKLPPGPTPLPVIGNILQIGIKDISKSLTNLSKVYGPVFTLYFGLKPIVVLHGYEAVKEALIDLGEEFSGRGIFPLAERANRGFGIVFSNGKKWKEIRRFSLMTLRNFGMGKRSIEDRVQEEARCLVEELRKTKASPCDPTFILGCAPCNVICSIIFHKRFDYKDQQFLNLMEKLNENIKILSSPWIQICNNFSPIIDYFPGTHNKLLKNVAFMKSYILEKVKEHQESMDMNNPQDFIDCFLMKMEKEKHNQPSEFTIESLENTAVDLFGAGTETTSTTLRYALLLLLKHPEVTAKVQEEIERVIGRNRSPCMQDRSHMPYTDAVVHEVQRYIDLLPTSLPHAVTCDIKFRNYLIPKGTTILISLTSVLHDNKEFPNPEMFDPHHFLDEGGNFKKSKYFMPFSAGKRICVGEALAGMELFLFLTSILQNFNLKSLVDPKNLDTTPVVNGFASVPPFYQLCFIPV
# Cytochrome P450 3A4 [12] = target: T3, Cytochrome P450 3A4 (Homo sapiens, UniProt P08684);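 note: CYP3A4 tested as one member of a cytochrome P450 panel screen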
# T3 sequence (P08684 whole entry): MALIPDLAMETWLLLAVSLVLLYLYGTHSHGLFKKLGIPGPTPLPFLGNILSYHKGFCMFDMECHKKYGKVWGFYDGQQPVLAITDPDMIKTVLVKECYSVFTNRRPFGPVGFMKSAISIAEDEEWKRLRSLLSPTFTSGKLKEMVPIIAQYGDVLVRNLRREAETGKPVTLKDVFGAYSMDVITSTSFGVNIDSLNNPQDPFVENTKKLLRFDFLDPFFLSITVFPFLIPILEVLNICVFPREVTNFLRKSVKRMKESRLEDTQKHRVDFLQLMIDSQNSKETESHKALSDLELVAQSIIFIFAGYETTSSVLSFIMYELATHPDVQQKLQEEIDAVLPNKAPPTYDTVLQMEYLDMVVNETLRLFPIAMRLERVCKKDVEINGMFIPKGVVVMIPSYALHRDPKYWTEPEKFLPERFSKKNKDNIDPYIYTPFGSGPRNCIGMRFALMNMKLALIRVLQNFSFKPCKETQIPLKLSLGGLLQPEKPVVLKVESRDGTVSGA
# [13] = target: Peroxisome proliferator-activated receptor gamma/Nuclear receptor coactivator 1 (Homo sapiens, UniProt P37231); format: functional;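 note: agonist potency as compounds enhance coactivator SRC-1 recruitment to PPARgamma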
# Sequence of Peroxisome proliferator-activated receptor gamma/Nuclear receptor coactivator 1 (P37231 whole entry): as the sequence (P37231 whole entry) above
# Sequence of Peroxisome proliferator-activated receptor gamma/Nuclear receptor coactivator 1 (Q15788 whole entry, further chain): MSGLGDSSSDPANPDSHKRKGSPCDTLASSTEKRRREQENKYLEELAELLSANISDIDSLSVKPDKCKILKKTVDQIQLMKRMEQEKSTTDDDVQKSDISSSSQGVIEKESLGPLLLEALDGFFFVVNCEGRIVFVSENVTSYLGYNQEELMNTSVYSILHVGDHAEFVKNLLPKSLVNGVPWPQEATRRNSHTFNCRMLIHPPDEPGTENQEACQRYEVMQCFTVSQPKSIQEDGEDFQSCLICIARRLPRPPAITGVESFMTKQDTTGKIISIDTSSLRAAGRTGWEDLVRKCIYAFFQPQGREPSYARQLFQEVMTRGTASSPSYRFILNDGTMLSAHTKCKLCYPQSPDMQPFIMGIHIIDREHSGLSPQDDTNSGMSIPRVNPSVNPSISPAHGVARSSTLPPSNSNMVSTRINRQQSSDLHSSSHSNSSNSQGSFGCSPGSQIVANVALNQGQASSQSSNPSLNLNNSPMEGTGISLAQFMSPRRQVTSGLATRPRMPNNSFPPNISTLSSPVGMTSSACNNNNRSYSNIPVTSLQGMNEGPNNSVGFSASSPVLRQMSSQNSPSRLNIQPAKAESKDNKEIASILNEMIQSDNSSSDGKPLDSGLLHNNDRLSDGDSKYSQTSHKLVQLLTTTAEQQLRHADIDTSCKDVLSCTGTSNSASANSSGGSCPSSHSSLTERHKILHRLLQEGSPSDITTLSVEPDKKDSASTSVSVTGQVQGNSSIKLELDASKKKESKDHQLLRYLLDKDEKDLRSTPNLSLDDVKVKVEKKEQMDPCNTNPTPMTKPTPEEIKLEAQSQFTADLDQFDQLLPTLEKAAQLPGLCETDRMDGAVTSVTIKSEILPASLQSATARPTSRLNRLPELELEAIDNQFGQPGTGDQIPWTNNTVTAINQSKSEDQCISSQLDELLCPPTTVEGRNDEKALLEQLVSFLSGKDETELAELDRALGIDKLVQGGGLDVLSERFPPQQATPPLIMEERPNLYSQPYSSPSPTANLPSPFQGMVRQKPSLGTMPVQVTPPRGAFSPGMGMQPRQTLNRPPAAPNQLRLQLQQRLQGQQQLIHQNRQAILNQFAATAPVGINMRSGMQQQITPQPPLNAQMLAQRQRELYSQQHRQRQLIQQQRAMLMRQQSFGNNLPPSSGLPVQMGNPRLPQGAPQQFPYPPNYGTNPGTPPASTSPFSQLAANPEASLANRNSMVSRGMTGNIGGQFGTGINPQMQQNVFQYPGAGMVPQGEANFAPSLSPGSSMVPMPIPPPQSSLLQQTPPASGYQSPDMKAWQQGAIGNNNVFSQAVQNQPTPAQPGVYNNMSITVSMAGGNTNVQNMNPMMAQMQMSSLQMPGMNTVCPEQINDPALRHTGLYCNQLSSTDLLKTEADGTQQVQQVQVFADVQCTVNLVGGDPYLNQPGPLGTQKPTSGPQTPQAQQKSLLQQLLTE
# [14] = target: Peroxisome proliferator-activated receptor gamma/Nuclear receptor coactivator 3 (Homo sapiens, UniProt P37231); format: functional;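 note: agonist potency for raising coactivator recruitment to the receptor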
# Cytochrome P450 3A4 [15] = target: T3, Cytochrome P450 3A4; remark: listed apart in the source
# [16] = Counterscreen for IDE inhibitors: Luminescence-based cell-based high throughput dose response assay to identify compounds that are cytotoxic to HEK cells. [Related pubchem assays: 434962 (Primary screen (IDE inhibitors in singlicate)), 449730 (Counterscreen (Cytotoxicity in triplicate)), 435028 (Confirmation (IDE inhibitors in triplicate)) …; format: functional; details: HEK293
# Insulin-degrading enzyme = target: T4, Insulin-degrading enzyme (Homo sapiens, UniProt P14735); experiment: Dose Response: Fluorescence polarization-based cell-based high throughput dose response assay for inhibitors of insulin-degrading enzyme (IDE). [Related pubchem assays: 434962 (Primary screen (IDE inhibitors in singlicate)), 449730 (Counterscreen (Cytotoxicity in triplicate)), 435028 (Confirmation (IDE inhibitors in triplicate)), 434984 (Summary …; format: functional
# T4 sequence (P14735 whole entry): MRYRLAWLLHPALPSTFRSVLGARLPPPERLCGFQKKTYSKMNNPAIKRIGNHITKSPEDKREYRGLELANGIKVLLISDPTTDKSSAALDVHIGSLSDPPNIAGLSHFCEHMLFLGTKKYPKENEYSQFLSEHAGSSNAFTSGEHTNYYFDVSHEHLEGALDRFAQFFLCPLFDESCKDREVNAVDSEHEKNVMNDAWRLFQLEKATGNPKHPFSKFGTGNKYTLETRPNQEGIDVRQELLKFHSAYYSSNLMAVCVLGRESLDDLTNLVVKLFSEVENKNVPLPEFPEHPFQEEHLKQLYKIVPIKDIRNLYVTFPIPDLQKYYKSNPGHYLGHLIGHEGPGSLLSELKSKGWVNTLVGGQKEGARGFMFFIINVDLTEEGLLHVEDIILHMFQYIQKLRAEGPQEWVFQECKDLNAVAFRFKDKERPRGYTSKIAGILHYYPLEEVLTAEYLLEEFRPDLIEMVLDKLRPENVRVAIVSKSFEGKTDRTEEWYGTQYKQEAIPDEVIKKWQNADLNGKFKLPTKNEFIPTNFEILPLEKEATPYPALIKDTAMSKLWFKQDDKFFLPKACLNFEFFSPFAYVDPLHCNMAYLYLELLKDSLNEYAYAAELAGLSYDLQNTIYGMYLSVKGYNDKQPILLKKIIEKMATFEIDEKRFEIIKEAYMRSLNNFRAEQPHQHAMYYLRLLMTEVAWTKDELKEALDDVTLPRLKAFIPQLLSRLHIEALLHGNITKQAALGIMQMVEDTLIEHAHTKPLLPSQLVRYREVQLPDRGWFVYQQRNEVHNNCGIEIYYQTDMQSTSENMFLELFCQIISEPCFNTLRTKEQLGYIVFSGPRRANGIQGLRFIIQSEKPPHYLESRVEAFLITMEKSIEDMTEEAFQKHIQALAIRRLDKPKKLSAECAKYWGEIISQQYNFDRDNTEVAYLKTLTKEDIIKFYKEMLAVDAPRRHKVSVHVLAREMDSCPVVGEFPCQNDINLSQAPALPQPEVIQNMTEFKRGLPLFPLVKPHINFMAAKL
# [17] = cytotoxicity toward DRD oncogenic fibroblasts, dose response, cell-based, non-viral oncogenic, luminescence (AID 1934); format: functional; details: Homo sapiens
# BJ [18] = experiment: cells; format: functional, cell-based; details: Homo sapiens
# BJ [19] = experiment: cytotoxicity toward BJ-TERT fibroblasts, dose response, cell-based, RAS-independent, luminescence (AID 1933); format: functional; details: Homo sapiens
# BJ [20] = experiment: cytotoxicity toward BJ-TERT-LT-ST fibroblasts, dose response, cell-based, RAS-independent, luminescence (AID 1935); format: functional; details: Homo sapiens;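 note: BJ fibroblasts immortalized with TERT plus LT and ST oncogenes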
# [21] = target: T5, Mannose-6-phosphate isomerase (Homo sapiens, UniProt P34949); experiment: human PMI inhibitors, high substrate, primary screen, biochemical, fluorescence intensity, high mannose 6-phosphate (AID 1220)
# T5 sequence (P34949 whole entry): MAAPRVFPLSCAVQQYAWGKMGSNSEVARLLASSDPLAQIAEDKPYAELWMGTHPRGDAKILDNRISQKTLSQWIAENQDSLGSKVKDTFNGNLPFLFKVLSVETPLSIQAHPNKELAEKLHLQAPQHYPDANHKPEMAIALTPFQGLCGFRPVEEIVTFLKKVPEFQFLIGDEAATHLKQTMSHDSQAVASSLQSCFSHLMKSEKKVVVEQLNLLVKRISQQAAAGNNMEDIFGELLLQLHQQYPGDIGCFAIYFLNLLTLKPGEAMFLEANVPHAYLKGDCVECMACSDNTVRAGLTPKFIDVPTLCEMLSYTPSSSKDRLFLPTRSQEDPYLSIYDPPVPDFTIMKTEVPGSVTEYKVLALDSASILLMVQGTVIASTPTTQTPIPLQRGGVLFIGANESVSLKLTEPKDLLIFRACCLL
# [22] = target: T5, Mannose-6-phosphate isomerase; experiment: inhibitors of human PMI, primary screen, biochemical, fluorescence intensity, coupled assay (AID 1209)
# [23] = target: T6, Histone-lysine N-methyltransferase NSD2 (Homo sapiens, UniProt O96028); format: biochemical
# T6 sequence (O96028 whole entry): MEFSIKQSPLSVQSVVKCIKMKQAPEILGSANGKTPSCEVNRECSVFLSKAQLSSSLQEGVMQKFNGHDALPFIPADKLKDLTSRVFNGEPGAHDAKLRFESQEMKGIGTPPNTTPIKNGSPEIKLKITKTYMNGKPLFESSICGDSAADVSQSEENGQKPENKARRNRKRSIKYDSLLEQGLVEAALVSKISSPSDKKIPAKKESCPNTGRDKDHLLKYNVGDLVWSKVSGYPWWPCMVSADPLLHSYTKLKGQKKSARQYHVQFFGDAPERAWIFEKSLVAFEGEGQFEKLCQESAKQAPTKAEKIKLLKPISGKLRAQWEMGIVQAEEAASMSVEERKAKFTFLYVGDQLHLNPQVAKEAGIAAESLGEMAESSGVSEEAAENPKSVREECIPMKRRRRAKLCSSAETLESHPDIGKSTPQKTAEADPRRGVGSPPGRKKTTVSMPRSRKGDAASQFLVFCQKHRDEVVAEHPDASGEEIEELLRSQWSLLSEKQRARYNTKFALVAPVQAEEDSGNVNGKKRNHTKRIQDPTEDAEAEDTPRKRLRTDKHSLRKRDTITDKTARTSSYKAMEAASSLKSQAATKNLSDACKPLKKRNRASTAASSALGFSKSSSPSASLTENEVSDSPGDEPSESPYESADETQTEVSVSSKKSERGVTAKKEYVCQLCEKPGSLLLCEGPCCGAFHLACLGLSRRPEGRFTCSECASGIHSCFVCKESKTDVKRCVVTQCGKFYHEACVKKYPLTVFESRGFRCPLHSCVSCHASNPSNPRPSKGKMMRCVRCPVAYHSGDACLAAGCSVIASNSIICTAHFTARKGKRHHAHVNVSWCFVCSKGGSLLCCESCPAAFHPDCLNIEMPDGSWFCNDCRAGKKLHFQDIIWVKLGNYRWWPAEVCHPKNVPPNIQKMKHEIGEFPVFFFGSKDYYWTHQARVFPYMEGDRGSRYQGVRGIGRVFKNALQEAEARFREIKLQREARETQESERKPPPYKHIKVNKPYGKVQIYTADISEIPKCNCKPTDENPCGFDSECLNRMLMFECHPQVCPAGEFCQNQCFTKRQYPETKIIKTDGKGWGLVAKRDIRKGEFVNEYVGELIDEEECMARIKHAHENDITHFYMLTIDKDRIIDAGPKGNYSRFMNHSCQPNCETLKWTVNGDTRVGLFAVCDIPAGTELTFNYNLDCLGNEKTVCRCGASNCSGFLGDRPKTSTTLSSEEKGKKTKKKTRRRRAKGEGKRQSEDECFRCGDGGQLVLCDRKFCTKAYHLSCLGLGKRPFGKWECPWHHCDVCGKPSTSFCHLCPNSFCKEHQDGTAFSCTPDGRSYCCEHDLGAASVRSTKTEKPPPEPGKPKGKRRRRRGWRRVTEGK
structure (smiles),measurement,setting,value
O=C(COC(=O)/C=C/c1ccc(Cl)cc1)Nc1ccccc1-c1ccccc1,IC50,[1],8.06 µM (active)
same,IC50,[2],6.13 µM (active)
Clc1ccccc1/C=C/c1nc(-c2ccccn2)no1,EC50,[3],5.54 µM (active)
same,EC50,[4],6.25 µM (active)
same,IC50,[5],> 39.8 µM (not active)
same,AC50,[6],2 µM (active)
same,EC50,[7],3.76 µM (active)
same,EC50,[8],1.87 µM (active)
same,AC50,[9],2.74 µM (active)
same,AC50,[10],> 52 µM (inactive)
N#Cc1c(-c2ccccc2)cc(-c2ccccc2)nc1SCc1nnc(-c2ccccc2)o1,AC50,Cytochrome P450 2C19,1.41 µM (inconclusive)
same,EC50,[11],25.1 µM (not active)
same,AC50,Cytochrome P450 2C9,0.251 µM (inconclusive)
same,AC50,Cytochrome P450 3A4 [12],7.08 µM (inconclusive)
same,EC50,[13],26.1 µM (not active)
same,EC50,[14],27.6 µM (not active)
Cc1cc(Cl)ccc1Oc1ncnc2oc(-c3ccccc3)cc12,EC50,[11],> 79.4 µM (not active)
same,AC50,Cytochrome P450 3A4 [15],inconclusive
same,EC50,[13],> 79.4 µM (not active)
same,EC50,[14],> 79.4 µM (not active)
CCC(Oc1ccc2c(=O)c(-c3ccccc3OC)coc2c1)C(=O)OCc1ccccc1 (centres undefined),IC50,[1],4.12 µM (active)
same,IC50,[2],11.5 µM (not active)
CC(=O)c1cccc(OCC(=O)N2CCN(c3ccc(C(F)(F)F)cn3)CC2)c1,IC50,[16],19.4 µM (not active)
same,IC50,Insulin-degrading enzyme,19.2 µM (not active)
CCO[C@@H]1OC(C(=O)N2CCN(Cc3ccc4c(c3)OCO4)CC2)=C[C@H](c2csc3ccccc23)[C@H]1CCCO,EC50,[11],> 79.4 µM (not active)
same,EC50,[13],> 79.4 µM (not active)
same,EC50,[14],> 79.4 µM (not active)
COC(=O)c1ccc(Oc2cc(C)nc(-n3nc(C)cc3C)n2)cc1,IC50,[5],34.2 µM (not active)
same,EC50,[17],2.25 µM (active)
same,EC50,BJ [18],0.851 µM (active)
same,AC50,Cytochrome P450 3A4 [12],39.8 µM (inconclusive)
same,EC50,BJ [19],0.69 µM (active)
same,EC50,BJ [20],0.699 µM (active)
COc1ccc(OC)c(Nc2cc(C)nc3nc(C)nn23)c1,IC50,[5],13 µM (not active)
C(=N/Nc1cc(N2CCOCC2)nc(N2CCOCC2)n1)/c1ccccc1,IC50,[21],> 50 µM (not active)
same,IC50,[22],> 50 µM (not active)
same,AC50,[23],> 20 µM (inactive)
S=C(NCCc1ccccc1)N/N=C/c1ccccc1Cl,IC50,[1],5.07 µM (active)
same,IC50,[2],5.02 µM (active)
